This passage reports remaining binding results from publication PMC6576746, “Rational discovery of dual-indication multi-target PDE/Kinase inhibitor for precision anti-cancer therapy using structural systems pharmacology” (PLoS Computational Biology, 2019).

Common to all, as to assay: biochemical
Set-up in all cases: DiscoverX KinomeScan competition binding assay across human kinases; per cent of control at 10 and 100 uM

One assay concerns the target MYLK2 (Homo sapiens, UniProt Q9H1R3). Conditions: competition binding, % of control; read-out: Percent Control (100 uM Levosimendan). A digest of the protocol: (§1)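 Binding is expressed as %control, normalised between positive and negative control signals. The compound (levosimendan) was tested at 10 μM and 100 μM in the DiscoverX KinomeScan competition binding format against human kinases.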

Another assay addresses PIK3CA(E545A) (Homo sapiens, UniProt P42336, E545A). Conditions: competition binding, % of control; read-out: Percent Control (100 uM Levosimendan). A digest of the protocol: as §1
The target in a further assay is CAMK4 (Homo sapiens, UniProt Q16566). Conditions: competition binding, % of control; read-out: Percent Control (100 uM Levosimendan). A digest of the protocol:
as §1

A further assay addresses PRKCQ (Homo sapiens, UniProt Q04759). Conditions: competition binding, % of control. A digest of the protocol: as §1
In a further assay the target is NEK5 (Homo sapiens, UniProt Q6P3R8). Conditions: competition binding, % of control; read-out: Percent Control (100 uM Levosimendan). A digest of the protocol:
as §1

For a further assay, the target named is CLK4 (Homo sapiens, UniProt Q9HAZ1). Conditions: competition binding, % of control; read-out: Percent Control (100 uM Levosimendan). The essentials:
as §1

The next assay concerns the target AKT3 (Homo sapiens, UniProt Q9Y243). Conditions: competition binding, % of control. The essentials:
as §1

The target in a further assay is T1, YANK2 (Homo sapiens, UniProt Q9NY57).
T1 construct: gene STK32B
T1 sequence (Q9NY57 whole entry): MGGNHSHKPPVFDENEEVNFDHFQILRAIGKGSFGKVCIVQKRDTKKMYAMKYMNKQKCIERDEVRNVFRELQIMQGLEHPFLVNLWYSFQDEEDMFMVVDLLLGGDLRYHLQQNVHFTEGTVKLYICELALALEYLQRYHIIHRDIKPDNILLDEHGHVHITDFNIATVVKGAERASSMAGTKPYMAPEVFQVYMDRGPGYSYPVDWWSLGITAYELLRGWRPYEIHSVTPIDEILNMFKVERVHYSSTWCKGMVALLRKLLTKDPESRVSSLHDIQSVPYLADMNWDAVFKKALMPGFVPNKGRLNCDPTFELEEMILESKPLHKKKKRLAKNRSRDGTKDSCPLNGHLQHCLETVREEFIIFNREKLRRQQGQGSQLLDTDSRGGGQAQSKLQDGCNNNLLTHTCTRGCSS
Conditions: competition binding, % of control; read-out: Percent Control (100 uM Levosimendan). A digest of the protocol: as §1

The target of a further assay is EGFR(G719S) (Homo sapiens, UniProt P00533, G719S). Conditions: competition binding, % of control. The essentials: as §1
EGFR(G719S), sequence (P00533 whole entry G719S): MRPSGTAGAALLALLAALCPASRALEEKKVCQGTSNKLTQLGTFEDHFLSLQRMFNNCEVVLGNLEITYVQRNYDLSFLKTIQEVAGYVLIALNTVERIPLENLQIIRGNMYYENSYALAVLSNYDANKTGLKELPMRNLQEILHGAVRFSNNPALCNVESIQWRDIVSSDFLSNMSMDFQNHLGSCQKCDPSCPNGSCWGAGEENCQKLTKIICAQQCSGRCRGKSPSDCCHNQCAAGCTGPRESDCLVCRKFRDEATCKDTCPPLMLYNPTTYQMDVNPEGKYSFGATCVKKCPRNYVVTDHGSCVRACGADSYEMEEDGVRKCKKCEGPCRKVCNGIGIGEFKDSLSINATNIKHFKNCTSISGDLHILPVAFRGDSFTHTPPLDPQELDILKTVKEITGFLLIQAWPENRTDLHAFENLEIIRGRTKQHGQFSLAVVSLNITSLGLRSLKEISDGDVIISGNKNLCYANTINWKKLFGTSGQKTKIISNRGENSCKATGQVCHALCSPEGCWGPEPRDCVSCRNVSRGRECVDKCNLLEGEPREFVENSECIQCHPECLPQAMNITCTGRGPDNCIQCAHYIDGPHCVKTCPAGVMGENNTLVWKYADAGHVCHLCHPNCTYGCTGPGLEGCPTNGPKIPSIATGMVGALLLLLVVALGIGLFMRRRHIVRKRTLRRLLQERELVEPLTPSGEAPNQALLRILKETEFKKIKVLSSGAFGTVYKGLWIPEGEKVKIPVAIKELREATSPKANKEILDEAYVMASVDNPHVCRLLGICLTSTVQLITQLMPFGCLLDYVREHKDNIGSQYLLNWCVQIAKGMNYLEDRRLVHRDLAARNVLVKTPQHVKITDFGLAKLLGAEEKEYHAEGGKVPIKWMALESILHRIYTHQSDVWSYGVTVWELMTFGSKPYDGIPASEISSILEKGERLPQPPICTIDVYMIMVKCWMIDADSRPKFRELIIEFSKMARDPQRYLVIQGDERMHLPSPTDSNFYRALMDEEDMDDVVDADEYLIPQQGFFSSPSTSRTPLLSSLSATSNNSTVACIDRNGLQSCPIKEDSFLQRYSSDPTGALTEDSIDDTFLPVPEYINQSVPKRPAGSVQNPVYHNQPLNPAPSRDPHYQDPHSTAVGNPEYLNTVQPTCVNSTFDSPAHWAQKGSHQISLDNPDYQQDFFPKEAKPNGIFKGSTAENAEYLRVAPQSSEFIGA
The next assay concerns the target TRPM6 (Homo sapiens, UniProt Q9BX84). Conditions: competition binding, % of control; read-out: Percent Control (100 uM Levosimendan). The essentials: as §1
The next assay concerns the target ACVR1 (Homo sapiens, UniProt Q04771). Conditions: competition binding, % of control. The essentials: as §1
For another assay, the target named is BMX (Homo sapiens, UniProt P51813). Conditions: competition binding, % of control; read-out: Percent Control (100 uM Levosimendan). A digest of the protocol:
as §1

The target of assay [1] is EGFR(L747-S752del, P753S) (Homo sapiens, UniProt P00533, DEL747-752/P753S). Conditions: competition binding, % of control; read-out: Percent Control (100 uM Levosimendan). The essentials:
as §1

The target of the next assay is T2, MST4 (Homo sapiens, UniProt Q9P289).
T2 construct: gene STK26
Conditions: competition binding, % of control; read-out: Percent Control (100 uM Levosimendan). A digest of the protocol: as §1

The target of a further assay is MAP4K3 (Homo sapiens, UniProt Q8IVH8). Conditions: competition binding, % of control; read-out: Percent Control (100 uM Levosimendan). The essentials:
as §1

Another assay deals with GRK4 (Homo sapiens, UniProt P32298). Conditions: competition binding, % of control; read-out: Percent Control (100 uM Levosimendan). A digest of the protocol: as §1
In the next assay the target is T3, ERK5 (Homo sapiens, UniProt Q13164).
T3 construct: gene MAPK7
Conditions: competition binding, % of control; read-out: Percent Control (100 uM Levosimendan). The essentials: as §1

In another assay the target is EPHA6 (Homo sapiens, UniProt Q9UF33). Conditions: competition binding, % of control; read-out: Percent Control (100 uM Levosimendan). The essentials: as §1
Another assay deals with ERBB4 (Homo sapiens, UniProt Q15303). Conditions: competition binding, % of control; read-out: Percent Control (100 uM Levosimendan). A digest of the protocol: as §1
The mark [2] stands for this setting: read-out: Percent Control (10 uM Levosimendan).
The mark [3] stands for this setting: read-out: Percent Control (100 uM Levosimendan).

AKT3, sequence (Q9Y243 whole entry): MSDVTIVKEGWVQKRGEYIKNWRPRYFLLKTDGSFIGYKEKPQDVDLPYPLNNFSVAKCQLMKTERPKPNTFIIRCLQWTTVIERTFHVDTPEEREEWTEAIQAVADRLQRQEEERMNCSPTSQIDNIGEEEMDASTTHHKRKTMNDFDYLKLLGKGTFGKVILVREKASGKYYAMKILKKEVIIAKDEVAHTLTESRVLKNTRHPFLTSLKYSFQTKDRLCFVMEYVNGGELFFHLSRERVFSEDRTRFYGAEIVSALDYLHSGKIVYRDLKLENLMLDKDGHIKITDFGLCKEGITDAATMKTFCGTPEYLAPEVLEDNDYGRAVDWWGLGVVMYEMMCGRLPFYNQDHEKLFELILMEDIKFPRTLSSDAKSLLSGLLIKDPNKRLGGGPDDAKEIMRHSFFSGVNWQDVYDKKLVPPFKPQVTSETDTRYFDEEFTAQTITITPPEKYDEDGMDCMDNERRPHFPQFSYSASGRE
ACVR1, sequence (Q04771 whole entry): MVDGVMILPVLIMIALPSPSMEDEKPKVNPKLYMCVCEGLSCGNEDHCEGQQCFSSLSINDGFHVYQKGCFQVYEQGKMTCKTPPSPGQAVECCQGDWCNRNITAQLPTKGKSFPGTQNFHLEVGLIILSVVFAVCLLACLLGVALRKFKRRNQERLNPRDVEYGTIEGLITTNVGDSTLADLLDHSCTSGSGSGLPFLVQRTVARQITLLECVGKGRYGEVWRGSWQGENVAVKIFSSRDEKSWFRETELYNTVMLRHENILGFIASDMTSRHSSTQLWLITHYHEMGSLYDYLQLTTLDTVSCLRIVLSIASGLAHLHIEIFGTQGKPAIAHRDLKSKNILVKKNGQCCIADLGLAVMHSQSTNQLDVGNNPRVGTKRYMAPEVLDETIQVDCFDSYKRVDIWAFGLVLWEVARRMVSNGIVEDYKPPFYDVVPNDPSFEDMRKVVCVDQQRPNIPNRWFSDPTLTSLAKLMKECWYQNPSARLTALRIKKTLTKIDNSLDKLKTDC
PRKCQ, sequence (Q04759 whole entry): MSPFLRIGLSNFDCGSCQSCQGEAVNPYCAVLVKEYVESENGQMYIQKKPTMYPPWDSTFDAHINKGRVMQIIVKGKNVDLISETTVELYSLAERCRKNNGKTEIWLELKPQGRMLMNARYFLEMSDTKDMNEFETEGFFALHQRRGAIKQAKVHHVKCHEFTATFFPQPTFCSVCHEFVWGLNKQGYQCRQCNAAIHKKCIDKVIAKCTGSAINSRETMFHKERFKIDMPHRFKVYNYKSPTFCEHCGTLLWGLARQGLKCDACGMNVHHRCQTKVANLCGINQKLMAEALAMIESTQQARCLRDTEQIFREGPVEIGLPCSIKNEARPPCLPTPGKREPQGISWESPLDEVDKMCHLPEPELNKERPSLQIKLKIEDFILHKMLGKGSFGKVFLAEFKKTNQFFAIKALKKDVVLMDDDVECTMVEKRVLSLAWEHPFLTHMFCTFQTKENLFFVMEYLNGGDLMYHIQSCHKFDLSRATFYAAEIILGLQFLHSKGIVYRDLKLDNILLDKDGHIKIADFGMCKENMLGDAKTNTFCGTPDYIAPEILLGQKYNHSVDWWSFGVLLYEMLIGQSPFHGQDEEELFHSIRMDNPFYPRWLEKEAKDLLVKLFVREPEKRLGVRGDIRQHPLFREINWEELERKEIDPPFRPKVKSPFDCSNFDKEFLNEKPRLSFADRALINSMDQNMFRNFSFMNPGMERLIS
PIK3CA(E545A), sequence (P42336 whole entry E545A): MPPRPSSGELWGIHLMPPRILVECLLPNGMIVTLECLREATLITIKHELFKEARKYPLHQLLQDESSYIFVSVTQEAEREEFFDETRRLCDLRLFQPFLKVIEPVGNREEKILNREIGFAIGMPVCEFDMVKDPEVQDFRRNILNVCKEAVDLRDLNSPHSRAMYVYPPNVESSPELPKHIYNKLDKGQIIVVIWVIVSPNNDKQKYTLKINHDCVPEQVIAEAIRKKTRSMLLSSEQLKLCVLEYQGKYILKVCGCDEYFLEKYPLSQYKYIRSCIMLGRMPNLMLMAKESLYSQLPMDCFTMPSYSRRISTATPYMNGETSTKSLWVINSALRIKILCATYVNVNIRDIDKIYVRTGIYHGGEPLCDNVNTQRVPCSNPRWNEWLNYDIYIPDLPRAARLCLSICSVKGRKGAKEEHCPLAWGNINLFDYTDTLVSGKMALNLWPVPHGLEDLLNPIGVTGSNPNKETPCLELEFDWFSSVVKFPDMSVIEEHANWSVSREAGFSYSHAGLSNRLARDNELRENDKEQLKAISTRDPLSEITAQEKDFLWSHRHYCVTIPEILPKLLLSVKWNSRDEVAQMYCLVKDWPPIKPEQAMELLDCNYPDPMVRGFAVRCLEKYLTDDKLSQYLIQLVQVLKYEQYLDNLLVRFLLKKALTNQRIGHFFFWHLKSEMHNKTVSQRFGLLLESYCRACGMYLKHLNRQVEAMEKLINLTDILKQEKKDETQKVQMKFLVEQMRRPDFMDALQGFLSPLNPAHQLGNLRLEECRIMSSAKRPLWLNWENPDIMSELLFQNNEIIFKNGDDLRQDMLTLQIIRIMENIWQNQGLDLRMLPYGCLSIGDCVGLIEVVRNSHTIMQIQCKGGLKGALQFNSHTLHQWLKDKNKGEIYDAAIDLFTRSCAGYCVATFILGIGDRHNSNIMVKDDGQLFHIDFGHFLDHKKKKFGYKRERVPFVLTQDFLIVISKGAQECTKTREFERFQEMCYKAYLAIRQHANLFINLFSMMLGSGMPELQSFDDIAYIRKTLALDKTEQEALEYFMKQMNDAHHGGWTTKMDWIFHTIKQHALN
MYLK2, sequence (Q9H1R3 whole entry): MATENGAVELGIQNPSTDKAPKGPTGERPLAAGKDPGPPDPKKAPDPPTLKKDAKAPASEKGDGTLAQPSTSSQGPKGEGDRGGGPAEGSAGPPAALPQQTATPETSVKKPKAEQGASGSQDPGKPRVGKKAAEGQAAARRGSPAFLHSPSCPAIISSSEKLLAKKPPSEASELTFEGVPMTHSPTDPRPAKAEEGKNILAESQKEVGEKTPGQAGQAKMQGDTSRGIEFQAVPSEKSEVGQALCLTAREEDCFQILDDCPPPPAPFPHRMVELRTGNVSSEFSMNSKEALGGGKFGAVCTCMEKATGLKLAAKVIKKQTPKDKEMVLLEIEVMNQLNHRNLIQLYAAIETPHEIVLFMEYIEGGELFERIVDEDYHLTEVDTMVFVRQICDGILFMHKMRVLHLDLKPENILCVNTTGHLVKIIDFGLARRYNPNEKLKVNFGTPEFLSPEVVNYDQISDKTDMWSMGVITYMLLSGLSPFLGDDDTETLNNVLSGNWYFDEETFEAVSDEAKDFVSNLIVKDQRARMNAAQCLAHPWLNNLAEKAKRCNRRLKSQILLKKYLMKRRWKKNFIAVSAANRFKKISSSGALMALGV

For the compound `C[C@@H]1CC(=O)NN=C1c1ccc(NN=C(C#N)C#N)cc1` [levosimendan], the remaining binding at 100 µM was found to be 81% at MYLK2; 68% on PIK3CA(E545A); 100% at CAMK4; 36% on PRKCQ (setting [3]); 86% on NEK5; 89% at CLK4. For the same compound, the remaining binding at 100 µM was 37% on AKT3 (setting [3]); 92% at YANK2; 41% at EGFR(G719S) (setting [3]); 89% at TRPM6; 6.5% on ACVR1 (setting [3]); 77% on BMX. In addition, the remaining binding at 100 µM in [1] was found to be 91%; at MST4, 71%; on MAP4K3 it was 95%; on GRK4, 100%; on ERK5, 100%; on EPHA6, 98%. Moreover, the remaining binding at 100 µM on ERBB4 is 63%. In addition, the remaining binding at 10 µM at PRKCQ (setting [2]) was found to be 5.2%; at AKT3 (setting [2]), 96%; at EGFR(G719S) (setting [2]), 79%; at ACVR1 (setting [2]) it was 55%.
